Measurements taken from US5116748A, “Process for the production of L-alanine dehydrogenase from 78-3 FERM BP-2517” (Toyo Jozo Kabushiki Kaisha, priority 1988, dated 1992).
Where two headings read alike, the source gives them in different places.

Test system: L-alanine dehydrogenase from Sporolactobacillus sp. 78-3 (FERM BP-2517)
Assay: Km-Value of L-alanine dehydrogenase (reductive amination, decrease of NADH at 340 nm)
Assay type: biochemical
Conditions: purified enzyme
Method: Enzyme activity is measured by the following assay method:
The reaction mixture, 1 ml, in a 1 ml quartz cell is pre-incubated at 37° C. for 5 mins. Dilute enzyme solution, 0.02 ml with 50 mM triethanolamine buffer (pH 8.5) is added thereto and the mixture is stirred to initiate the reaction. Decrease of NADH is measured photometrically at 340 nm during the reaction. Enzyme activity is calculated by the following equation on the linear part of the curve: [formula] wherein T=reaction time (min.); X=dilution ratio.

SMILES | Km (coenzyme NADH, read-out: Km-Value (NADH)) [mM] | Km (substrate NH4+, read-out: Km-Value (NH4+)) [mM]
NC(=O)C1=CN([C@@H]2O[C@H](COP(=O)(O)OP(=O)(O)OC[C@H]3O[C@@H](n4cnc5c(N)ncnc54)[C@H](O)[C@@H]3O)[C@@H](O)[C@H]2O)C=CC1 [NADH] | 0.011 | –
N [NH4^+] | – | 20
